Measured values from patent publication US9669034B2, “4-aryl-N-phenyl-1,3,5-triazin-2-amines containing a sulfoximine group” (BAYER INTELLECTUAL PROPERTY GMBH, priority 2011, dated 2017).
Like-named read-outs stand apart in the source and are kept apart here.

How the values were obtained:
[1] = target: CDK9/CycT1 (Homo sapiens (Human), UniProt P50750); assay: CDK9/CycT1 kinase assay (TR-FRET); format: biochemical; conditions: Method 1
Outline: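 Recombinant full-length His-tagged human CDK9/CycT1, insect-cell expressed and Ni-NTA purified. Substrate is a biotinylated peptide (biotin-Ttds-linked). Kinase inhibition is read out by TR-FRET.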

[2] = target: CDK2/CycE (Homo sapiens (Human), UniProt P24941); assay: CDK2/CycE kinase assay (TR-FRET); format: biochemical; conditions: Method 2
Outline: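 Enzyme was GST-tagged human CDK2 with GST-tagged human CycE, expressed in Sf9 insect cells and glutathione-affinity purified. The kinase reaction used a biotinylated peptide substrate, with inhibition measured by TR-FRET.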

[3] = tested on: HeLa human cervical tumour cells; assay: Proliferation assay (crystal violet), HeLa; format: cell-based; conditions: Method 3, read-out: Inhibition of HeLa cell proliferation, IC50
Description: (§1) Cultivated tumour cells (NCI-H460, human non-small cell lung carcinoma cells, ATCC HTB-177; DU145, hormone-independent human prostate carcinoma cells, ATCC HTB-81; HeLa-MaTu, human cervical carcinoma cells, EPO-GmbH, Berlin; HeLa-MaTu-ADR, multidrug-resistant human cervical carcinoma cells, EPO-GmbH, Berlin; HeLa human cervical tumour cells, ATCC CCL-2; Caco-2 human colorectal carcinoma, ATCC HTB-37; B16F10 mouse melanoma cells, ATCC CRL-6475) were plated at a density of 5000 cells/well (DU145, HeLa-MaTu-ADR), 3000 cells/well (NCI-H460, HeLa-MaTu, HeLa), 1500 cells/well (Caco-2), or 1000 cells/well (B16 F10) in a 96-well multititer plate in 200 μL of their respective growth medium supplemented 10% fetal calf serum. After 24 hours, the cells of one plate (zero-point plate) were stained with crystal violet (see below), while the medium of the other plates was replaced by fresh culture medium (200 μL), to which the test substances were added in various concentrations (0 M, as well as in the range of […]; the final concentration of the solvent dimethylsulfoxide was 0.5%). The cells were incubated for 4 days in the presence of test substances. Cell proliferation was determined by staining the cells with crystal violet: the cells were fixed by adding 20 μL/measuring point of an 11% glutaric aldehyde solution for 15 minutes at room temperature. After three washing cycles of the fixed cells with water, the plates were dried at room temperature. The cells were stained by adding 100 μL/measuring point of a 0.1% crystal violet solution (pH 3.0). After three washing cycles of the stained cells with water, the plates were dried at room temperature. The dye was dissolved by adding 100 μL/measuring point of a 10% acetic acid solution. The absorbance was determined by photometry at a wavelength of 595 nm. The change of cell number, in percent, was calculated by normalization of the measured values to the absorbance values of the zero-point plate (=0%) and the absorbance of the untreated (0 M) cells (=100%). The IC50 values were determined by means of a 4 parameter fit.

[4] = tested on: HeLa-MaTu-ADR, multidrug-resistant human cervical carcinoma cells; assay: Proliferation assay (crystal violet), HeLa-MaTu-ADR; format: cell-based; conditions: Method 3, read-out: Inhibition of HeLa/MaTu/ADR cell proliferation, IC50
Description: as §1

[5] = tested on: NCI-H460, human non-small cell lung carcinoma cells; assay: Proliferation assay (crystal violet), NCI-H460; format: cell-based; conditions: Method 3, read-out: Inhibition of NCI-H460 cell proliferation, IC50
Description: as §1

[6] = tested on: DU145, hormone-independent human prostate carcinoma cells; assay: Proliferation assay (crystal violet), DU145; format: cell-based; conditions: Method 3, read-out: Inhibition of DU145 cell proliferation, IC50
Description: as §1

[7] = tested on: Caco-2 human colorectal carcinoma; assay: Proliferation assay (crystal violet), Caco-2; format: cell-based; conditions: Method 3, read-out: Inhibition of Caco-2 cell proliferation, IC50
Description: as §1

[8] = tested on: B16F10 mouse melanoma cells; assay: Proliferation assay (crystal violet), B16F10; format: cell-based; conditions: Method 3, read-out: Inhibition of B16F10 cell proliferation, IC50
Description: as §1

[9] = Homo sapiens, NCI-H460, NCI-H460 cells
[10] = Homo sapiens, DU-145, DU145 cells
[11] = Homo sapiens, Caco-2, Caco-2 cells
[12] = Mus musculus, B16-F10, B16F10 cells

Chain of CDK9/CycT1 (P50750 whole entry): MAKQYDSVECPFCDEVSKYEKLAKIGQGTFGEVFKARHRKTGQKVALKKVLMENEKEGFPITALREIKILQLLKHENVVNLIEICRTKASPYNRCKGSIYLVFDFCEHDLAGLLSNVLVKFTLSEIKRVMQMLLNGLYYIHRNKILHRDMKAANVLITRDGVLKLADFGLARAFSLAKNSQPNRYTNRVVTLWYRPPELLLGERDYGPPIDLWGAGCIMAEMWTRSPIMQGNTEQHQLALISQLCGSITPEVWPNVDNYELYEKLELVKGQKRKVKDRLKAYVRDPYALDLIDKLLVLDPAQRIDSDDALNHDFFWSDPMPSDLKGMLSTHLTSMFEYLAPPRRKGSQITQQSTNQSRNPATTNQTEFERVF
Chain of CDK9/CycT1 (O60563 whole entry partner): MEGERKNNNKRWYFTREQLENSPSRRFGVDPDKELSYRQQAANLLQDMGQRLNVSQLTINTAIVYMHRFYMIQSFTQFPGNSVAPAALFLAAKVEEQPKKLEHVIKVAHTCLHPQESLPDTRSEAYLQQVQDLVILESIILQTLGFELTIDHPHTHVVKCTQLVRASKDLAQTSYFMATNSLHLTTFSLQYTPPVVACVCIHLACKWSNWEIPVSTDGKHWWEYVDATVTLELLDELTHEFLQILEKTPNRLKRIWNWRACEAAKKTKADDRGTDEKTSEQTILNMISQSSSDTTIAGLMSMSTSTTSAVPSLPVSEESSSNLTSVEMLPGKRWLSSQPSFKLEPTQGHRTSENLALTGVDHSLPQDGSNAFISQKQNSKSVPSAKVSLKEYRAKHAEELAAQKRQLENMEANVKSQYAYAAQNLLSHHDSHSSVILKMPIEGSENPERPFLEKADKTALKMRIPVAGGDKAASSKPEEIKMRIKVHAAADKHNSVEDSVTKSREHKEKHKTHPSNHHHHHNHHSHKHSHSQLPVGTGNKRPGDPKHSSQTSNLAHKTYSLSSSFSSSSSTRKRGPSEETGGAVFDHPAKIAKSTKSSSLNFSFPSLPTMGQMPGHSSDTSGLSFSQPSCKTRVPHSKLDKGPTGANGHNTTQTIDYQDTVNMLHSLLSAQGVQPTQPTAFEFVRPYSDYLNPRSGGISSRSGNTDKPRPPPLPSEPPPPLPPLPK

Row | IC50 [1] [nM] | IC50 [2] [nM] | IC50 ([3]; Homo sapiens, HeLa) [nM] | IC50 ([4]; Homo sapiens, HeLa) [nM] | IC50 [5, 9] [nM] | IC50 [6, 10] [nM] | IC50 [7, 11] [nM] | IC50 [8, 12] [nM] | IC50 [3] [nM] | IC50 [4] [nM] | IC50 ([5]; NCI-H460 cells) [nM] | IC50 ([6]; DU145 cells) [nM] | IC50 ([7]; Caco-2 cells) [nM] | IC50 ([8]; B16F10 cells) [nM] | SMILES
1 | 4 | 250 | 470 | 360 | 170 | 380 | 430 | 390 |  |  |  |  |  |  | CS(=N)(=O)Cc1cccc(Nc2ncnc(-c3ccc(F)cc3OCc3cccc(Cl)c3)n2)c1 (racemic) [Example 92, (rac)-4-{2-[(3-Chlorobenzyl)oxy]-4-fluorophenyl}-N-{3-[(S-methylsulfonimidoyl)methyl]phenyl}-1,3,5-triazin-2-amine]
2 | 7 | 800 | 340 | 140 | 150 | 95 | 160 | 140 |  |  |  |  |  |  | C/C=C\COc1cc(F)ccc1-c1ncnc(Nc2cccc(CS(C)(=N)=O)c2)n1 (racemic) [Example 102, (rac)-4-{2-[(2Z)-But-2-en-1-yloxy]-4-fluorophenyl}-N-{3-[(S-methylsulfonimidoyl)methyl]phenyl}-1,3,5-triazin-2-amine]
3 | 3 | 180 | 140 | 260 | 120 | 120 | 150 | 130 |  |  |  |  |  |  | CS(=N)(=O)Cc1cccc(Nc2ncnc(-c3ccc(F)cc3OCc3cccc(C#N)c3)n2)c1 (racemic) [Example 98, (rac)-3-({5-Fluoro-2-[4-({3-[(S-methylsulfonimidoyl)methyl]phenyl}amino)-1,3,5-triazin-2-yl]phenoxy}methyl)benzonitrile]
4 | 2 | 250 | 120 | 180 | 150 | 120 | 230 | 200 |  |  |  |  |  |  | C=C(C)COc1cc(F)ccc1-c1ncnc(Nc2cccc(CS(C)(=N)=O)c2)n1 (racemic) [Example 99, (rac)-4-{4-Fluoro-2-[(2-methylprop-2-en-1-yl)oxy]phenyl}-N-{3-[(S-methylsulfonimidoyl)methyl]phenyl}-1,3,5-triazin-2-amine]
5 | 4 | 500 | 330 | 350 | 360 | 340 | 240 | 340 |  |  |  |  |  |  | CS(=N)(=O)Cc1cccc(Nc2ncnc(-c3ccc(F)cc3OCc3cc(F)cc(F)c3F)n2)c1 (racemic) [Example 101, (rac)-4-{4-Fluoro-2-[(2,3,5-trifluorobenzyl)oxy]phenyl}-N-{3-[(S-methylsulfonimidoyl)methyl]phenyl}-1,3,5-triazin-2-amine]

Second part, the molecule before the results:

Row | SMILES | IC50 [1] [nM] | IC50 [2] [nM] | IC50 ([3]; Homo sapiens, HeLa) [nM] | IC50 ([4]; Homo sapiens, HeLa) [nM] | IC50 [5, 9] [nM] | IC50 [6, 10] [nM] | IC50 [7, 11] [nM] | IC50 [8, 12] [nM] | IC50 [3] [nM] | IC50 [4] [nM] | IC50 ([5]; NCI-H460 cells) [nM] | IC50 ([6]; DU145 cells) [nM] | IC50 ([7]; Caco-2 cells) [nM] | IC50 ([8]; B16F10 cells) [nM]
6 | CCOC(=O)N=S(C)(=O)Cc1cccc(Nc2ncnc(-c3cccc4c3OCCC4)n2)c1 (racemic) [Example 29, (rac)-Ethyl [(3-{[4-(3,4-dihydro-2H-chromen-8-yl)-1,3,5-triazin-2-yl]amino}benzyl)(methyl)oxido-λ^6-sulfanylidene]carbamate] | 13 | 1200 | 510 | 760 | 720 | 540 | 760 | 960 |  |  |  |  |  | 
7 | CS(=N)(=O)Cc1cccc(Nc2ncnc(-c3ccc(F)cc3OCc3cc(F)cc(C(F)(F)F)c3)n2)c1 (racemic) [Example 89, (rac)-4-(4-Fluoro-2-{[3-fluoro-5-(trifluoromethyl)benzyl]oxy}phenyl)-N-{3-[(S-methylsulfonimidoyl)methyl]phenyl}-1,3,5-triazin-2-amine] | 4 | 280 | 470 | 450 | 370 | 420 | 520 | 470 |  |  |  |  |  | 
8 | COc1cc(F)ccc1-c1ncnc(Nc2cc(F)cc(CS(C)(=O)=NC#N)c2)n1 (single isomer, unassigned) [Example 72, [(3-Fluoro-5-{[4-(4-fluoro-2-methoxyphenyl)-1,3,5-triazin-2-yl]amino}benzyl)(methyl)oxido-λ^6-sulfanylidene]cyanamide] | 5 | 240 |  |  |  |  |  |  | 71 | 120 | 160 | 110 | 190 | 160
9 | CS(=N)(=O)Cc1cccc(Nc2ncnc(-c3ccc(F)cc3OCc3ccc(F)cc3)n2)c1 (single isomer, unassigned) [Example 56.b, 4-{4-Fluoro-2-[(4-fluorobenzyl)oxy]phenyl}-N-{3-[(S-methylsulfonimidoyl)methyl]phenyl}-1,3,5-triazin-2-amine] | 5 | 560 |  |  |  |  |  |  | 540 | 540 | 470 | 400 | 540 | 390
10 | CCOC(=O)N=S(C)(=O)Cc1cccc(Nc2ncnc(-c3ccccc3OCc3ccc(F)cc3)n2)c1 (racemic) [Example 42, (rac)-Ethyl [{3-[(4-{2-[(4-fluorobenzyl)oxy]phenyl}-1,3,5-triazin-2-yl)amino]benzyl}(methyl)oxido-λ^6-sulfanylidene]carbamate] | 5 | 1600 | 610 | 520 | 370 | 590 | 680 | 680 |  |  |  |  |  | 
11 | CNC(=O)N=S(C)(=O)Cc1cccc(Nc2ncnc(-c3ccc(F)cc3OC)n2)c1 (racemic) [Example 15, (rac)-1-[(3-{[4-(4-Fluoro-2-methoxyphenyl)-1,3,5-triazin-2-yl]amino}benzyl)(methyl)oxido-λ^6-sulfanylidene]-3-methylurea] | 7 | 930 | 390 | 940 | 1000 | 370 | 1000 | 620 |  |  |  |  |  | 
12 | COc1cc(F)ccc1-c1ncnc(Nc2cc(F)cc(CS(C)(=O)=NC#N)c2)n1 (racemic) [Example 70, (rac)-[(3-Fluoro-5-{[4-(4-fluoro-2-methoxyphenyl)-1,3,5-triazin-2-yl]amino}benzyl)(methyl)oxido-λ^6-sulfanylidene]cyanamide] | 6 | 180 | 150 | 120 | 230 | 79 | 170 | 130 |  |  |  |  |  | 
13 | C=CCOc1cc(F)ccc1-c1ncnc(Nc2cccc(CS(C)(=N)=O)c2)n1 (racemic) [Example 85, (rac)-4-[4-Fluoro-2-(prop-2-en-1-yloxy)phenyl]-N-{3-[(S-methylsulfonimidoyl)methyl]phenyl}-1,3,5-triazin-2-amine] | 9 | 380 | 330 | 560 | 230 | 190 | 51 | 280 |  |  |  |  |  | 
14 | CC#CCOc1cc(F)ccc1-c1ncnc(Nc2cccc(CS(C)(=N)=O)c2)n1 (single isomer, unassigned) [Example 74, 4-[2-(But-2-yn-1-yloxy)-4-fluorophenyl]-N-{3-[(S-methylsulfonimidoyl)methyl]phenyl}-1,3,5-triazin-2-amine] | 3 | 590 | 310 | 340 | 330 |  | 390 | 340 |  |  |  | 360 |  | 
